Key:
MCF-7 cancer cell line = assay: Cytotoxicity in cell culture (FIG. 3), MCF-7; type: cell-based; settings: MCF-7 cells, in vitro
NCI-ADR cancer cell line = assay: Cytotoxicity in cell culture (FIG. 3), NCI-ADR; type: cell-based; settings: NCI-ADR cells, in vitro
H460 cancer cell line = assay: Cytotoxicity in cell culture (FIG. 3), H460; type: cell-based; settings: H460 cells, in vitro
SF cancer cell line = assay: Cytotoxicity in cell culture (FIG. 3), SF; type: cell-based; settings: SF cells, in vitro
MX-1 tumor xenograft = MX-1 tumor xenograft in nude mice, tumor size (FIG. 1); type: in vivo; settings: infusion twice daily for five days; compared with control (pharmaceutical carrier only)
[1] = Body weight of treated nude mice with MX-1 xenograft (FIG. 2); type: in vivo; settings: infusion twice daily for five days; during the course of treatment

Structure (SMILES) | cytotoxicity (MCF-7 cancer cell line) | cytotoxicity (NCI-ADR cancer cell line) | cytotoxicity (H460 cancer cell line) | cytotoxicity (SF cancer cell line) | rate of tumor growth as measured by the tumor size (MX-1 tumor xenograft) | body weight [1]
C/C(=C\c1csc(C)n1)[C@H]1OC(=O)C[C@H](O)C(C)(C)C(=O)[C@H](C)[C@@H](O)[C@@H](C)CCC[C@@]2(C)O[C@H]2[C@H]1C [(14S)-14-methylepothilone B] | essentially inactive | essentially inactive | essentially inactive | essentially inactive |  | 
C/C(=C\c1csc(C)n1)[C@H]1OC(=O)C[C@H](O)C(C)(C)C(=O)[C@H](C)[C@@H](O)[C@@H](C)CCC[C@@]2(C)O[C@H]2[C@@H]1C [(14R)-14-methylepothilone B] | cytotoxic | cytotoxic | cytotoxic | cytotoxic |  | 
C/C1=C/[C@H](C)[C@@H](/C(C)=C/c2csc(C)n2)OC(=O)C[C@H](O)C(C)(C)C(=O)[C@H](C)[C@@H](O)[C@@H](C)CCC1 [(14S)-14-methylepothilone D] | cytotoxic | cytotoxic | cytotoxic | cytotoxic | decrease in the rate of tumor growth | slight decrease in body weight
C/C1=C/[C@@H](C)[C@@H](/C(C)=C/c2csc(C)n2)OC(=O)C[C@H](O)C(C)(C)C(=O)[C@H](C)[C@@H](O)[C@@H](C)CCC1 [(14R)-14-methylepothilone D] | essentially inactive | essentially inactive | essentially inactive | essentially inactive |  | 

— US20030134883A1, “14-Methyl-epothilones” (priority 2001, published 2003)
